{
  "source": "patent US20250368767A1",
  "about": "“POLYMER FOR INHIBITING SARS-COV-2 AND OTHER PATHOGENS” (FREIE UNIVERSITÄT BERLIN, priority 2022, published 2025)",
  "key": {"[1]": {"tested_on": "wild-type (WT) SARS-CoV-2", "type": "cell-based", "settings": "plaque reduction assay"}, "[2]": {"test": "zeta potential", "type": "physicochemical", "protocol": "Overall negative charge of the polymers owing to sulfate groups was confirmed by very high negative value of zeta potential (cf. Table 9). To check the morphology of P1 in aqueous solution, cryo-electron microscopy (cryo-EM) was performed. In accordance with the inventors' hypothesis, worm-like defined fibers having a length between approximately 150 nm and 215 nm were observed. Tomography of the sample was measured to calculate accurate length and width of the fibers."}},
  "data": [
    {"substance": "Heparin", "values": [
      {"measurement": "IC50 (μg/mL) against SARS-CoV-2", "setting": "[1]", "value": "1383.0 ± 255.1", "unit": "µg/mL"},
      {"measurement": "IC50", "setting": "[1]; read-out: IC50 (μM) against SARS-CoV-2", "value": "92.3 ± 19.4", "unit": "µM"},
      {"measurement": "ξ potential (mV)", "setting": "[2]", "value": "−31.2 ± 3.9", "unit": "mV"}
    ]}
  ]
}
